Laboratory results from US9783510B2, “Small molecule mediated transcriptional induction of E-cadherin” (Vanderbilt University, priority 2014, dated 2017).

System: E-cadherin expression in SW620 cells
Assay: E-cadherin expression, in-cell Western (ICW), SW620 cells
Format: cell-based
Conditions: for fold induction at 10 µM / EC50: Homo sapiens; for fold induction at 10 µM: SW-620, 24 h; for EC50: SW-620, inducement of E-cadherin expression in SW620 cells
Method: SW620 and H520 cells (5×10^4/100 μL) were seeded in a 96-well plate prior to treatment. Cells were treated with 10 μM concentration of synthesized compound in quadruplicate for 24 hours in RPMI 1640 supplemented medium and 100 μg/mL penicillin-streptomycin. The cells were then fixed with 100% methanol for 20 minutes at 4° C. The wells were then washed 2 times with PBS, permeabilized in 2% bovine serum albumin (BSA) and 0.2% TritonX-100 in PBS for 30 minutes at room temperature with gentle agitation, and blocked in LI-COR blocking buffer for 30 minutes at room temperature with gentle agitation. The cells were then incubated with the following primary antibodies: anti-E-Cadherin (1:500) and anti-α-Tubulin (1:1000) diluted in blocking buffer (1:1 dilution in PBS) for 2 hours at room temperature with gentle agitation. The cells were washed 4 times in PBS-T for 5 minutes each, and then incubated with the following secondary antibodies conjugated to a fluorescent entity: IRDye 800-conjugated goat anti-rabbit IgG (1:1000) and IRDye-700-conjugated goat anti-mouse IgG (1:2000) in blocking buffer (1:1 dilution in PBS) with gentle agitation for 1 h at room temperature. The cells were washed 4 times in PBS-T for 5 minutes each followed by a single wash with PBS. All liquid was removed from the wells and the plates were visualized and analyzed on the Odyssey IR imaging system (LI-COR Biosciences).
The assay was further optimized in the following manner. The cells were washed 2 times with PBS, fixed in 100% methanol at room temperature for 15 minutes, and again washed 2 times with PBS. The cells were then incubated with the following primary antibodies: anti-E-Cadherin (1:200) and anti-α-Tubulin (1:2000) diluted in ice cold 2% bovine serum albumin (BSA) and 0.2% TritonX-100 in PBS for 1 hour at room temperature with gentle agitation. The cells were washed 2 times in PBS and then incubated with the following secondary antibodies conjugated to a fluorescent entity: Licor 800-conjugated goat anti-rabbit IgG (1:2000) and IRDye-700-conjugated goat anti-mouse IgG (1:2000) in ice cold 2% BSA and 0.2% TritonX-100 in PBS with gentle agitation for 45 minutes at room temperature. The wells were washed 2 times in PBS, dried, and analyzed as previously mentioned.
N-Acetamidoalkyl-5-arylisoxazole-3-carboxamide analogs were synthesized as described above. Changes in expression level of E-cadherin in response to 10 μM compound in SW620 cells was determined in a cell-based functional assay as described above, and the data are shown in Table III. The compound number corresponds to the compound numbers used in Table II.
EC50 of inducement of E-cadherin expression in SW620 cells was determined in a cell-based functional assay as described above, and the data are shown in Table V. The compound number corresponds to the compound numbers used in Table IV.

[1] = change in expression level of E-cadherin in response to 10 μM compound, 24 hours, SW620 cells

Row | EC50 | Structure (SMILES) | fold induction at 10 µM [1] | fold change SW620 ICW [1]
1 | – | Cc1ccc(C(=O)NCCCNC(=O)c2cc(-c3cccs3)on2)o1 [Compound 77, N-(3-(5-methylfuran-2-carboxamido)propyl)-5-(thiophen-2-yl)isoxazole-3-carboxamide] | 2.99 | –
2 | – | Cc1noc(C(=O)NCCCNC(=O)c2cc(-c3cccs3)on2)n1 [Compound 78, 3-methyl-N-(3-(5-(thiophen-2-yl)isoxazole-3-carboxamido)propyl)-1,2,4-oxadiazole-5-carboxamide] | 1.97 | –
3 | – | Nc1ccc(C(=O)NCCCNC(=O)c2cc(-c3cccs3)on2)cn1 [Compound 79, N-(3-(6-aminonicotinamido)propyl)-5-(thiophen-2-yl)isoxazole-3-carboxamide] | 3.58 | –
4 | – | Cc1nc(C(=O)NCCCNC(=O)c2cc(-c3cccs3)on2)no1 [Compound 80, 5-methyl-N-(3-(5-(thiophen-2-yl)isoxazole-3-carboxamido)propyl)-1,2,4-oxadiazole-3-carboxamide] | 2.83 | –
5 | – | O=C(NCCCNC(=O)c1cccc(Cl)n1)c1cc(-c2cccs2)on1 [Compound 81, N-(3-(6-chloropicolinamido)propyl)-5-(thiophen-2-yl)isoxazole-3-carboxamide] | 3.09 | –
6 | – | N#Cc1ccnc(C(=O)NCCCNC(=O)c2cc(-c3cccs3)on2)c1 [Compound 82, N-(3-(4-cyanopicolinamido)propyl)-5-(thiophen-2-yl)isoxazole-3-carboxamide] | 2.8 | –
7 | – | O=C(NCCCNC(=O)c1cncc(Cl)n1)c1cc(-c2cccs2)on1 [Compound 83, N-(3-(6-chloropyrazine-2-carboxamido)propyl)-5-(thiophen-2-yl)isoxazole-3-carboxamide] | 2.64 | –
8 | – | O=C(NCCCNC(=O)c1cc2ccccc2o1)c1cc(-c2cccs2)on1 [Compound 85, N-(3-(benzofuran-2-carboxamido)propyl)-5-(thiophen-2-yl)isoxazole-3-carboxamide] | 3.26 | –
9 | – | O=C(NCCCNC(=O)c1ccc2ccccc2n1)c1cc(-c2ccccc2)on1 [Compound 86, 5-phenyl-N-(3-(quinoline-2-carboxamido)propyl)isoxazole-3-carboxamide] | 3.48 | –
10 | – | O=C(NCCCNC(=O)c1cnc2ccccn12)c1cc(-c2ccccc2)on1 [Compound 87, N-(3-(imidazo[1,2-a]pyridine-3-carboxamido)propyl)-5-phenylisoxazole-3-carboxamide] | 2.4 | –
11 | – | O=C(NCCCNC(=O)c1ccc(C(F)(F)F)o1)c1cc(-c2ccccc2)on1 [Compound 89, 5-phenyl-N-(3-(5-(trifluoromethyl)furan-2-carboxamido)propyl)isoxazole-3-carboxamide] | 2.13 | –
12 | – | Nc1ccc(C(=O)NCCCNC(=O)c2cc(-c3ccccc3)on2)cn1 [Compound 90, N-(3-(6-aminonicotinamido)propyl)-5-phenylisoxazole-3-carboxamide] | – | 2.50 fold
13 | – | Cc1nc(C(=O)NCCCNC(=O)c2cc(-c3ccccc3)on2)no1 [Compound 91, 5-methyl-N-(3-(5-phenylisoxazole-3-carboxamido)propyl)-1,2,4-oxadiazole-3-carboxamide] | 3.47 | –
14 | – | O=C(NCCCNC(=O)c1cccc(Cl)n1)c1cc(-c2ccccc2)on1 [Compound 92, N-(3-(6-chloropicolinamido)propyl)-5-phenylisoxazole-3-carboxamide] | 3.13 | –
15 | – | N#Cc1ccnc(C(=O)NCCCNC(=O)c2cc(-c3ccccc3)on2)c1 [Compound 93, N-(3-(4-cyanopicolinamido)propyl)-5-phenylisoxazole-3-carboxamide] | 2.88 | –
16 | – | O=C(NCCCNC(=O)c1cncc(Cl)n1)c1cc(-c2ccccc2)on1 [Compound 94, N-(3-(6-chloropyrazine-2-carboxamido)propyl)-5-phenylisoxazole-3-carboxamide] | 3.69 | –
17 | 2.57 µM | O=C(Cc1c[nH]c2ccccc12)NCCCNC(=O)c1cc(-c2ccccc2)on1 [Compound 95, N-(3-(2-(1H-indol-3-yl)acetamido)propyl)-5-phenylisoxazole-3-carboxamide] | 4.2 | –

Row | EC50 | Structure (SMILES) | fold induction at 10 µM [1] | fold change SW620 ICW [1]
18 | – | O=C(NCCCNC(=O)c1cc2ccccc2o1)c1cc(-c2ccccc2)on1 [Compound 96, N-(3-(benzofuran-2-carboxamido)propyl)-5-phenylisoxazole-3-carboxamide] | 2.58 | –
19 | – | Cc1cncc(C(=O)NCCCNC(=O)c2cc(-c3cccs3)on2)n1 [Compound 97, N-(3-(6-methylpyrazine-2-carboxamido)propyl)-5-(thiophen-2-yl)isoxazole-3-carboxamide] | 3.82 | –
20 | – | CC(C)(C)c1ccc(C(=O)NCCCNC(=O)c2cc(-c3cccs3)on2)o1 [Compound 98, N-(3-(5-(tert-butyl)furan-2-carboxamido)propyl)-5-(thiophen-2-yl)isoxazole-3-carboxamide] | 3.65 | –
21 | – | O=C(NCCCNC(=O)c1ccc(Cl)o1)c1cc(-c2cccs2)on1 [Compound 99, N-(3-(5-chlorofuran-2-carboxamido)propyl)-5-(thiophen-2-yl)isoxazole-3-carboxamide] | 3.66 | –
22 | – | O=C(NCCCNC(=O)c1occc1-c1ccccc1)c1cc(-c2cccs2)on1 [Compound 100, N-(3-(3-phenylfuran-2-carboxamido)propyl)-5-(thiophen-2-yl)isoxazole-3-carboxamide] | 2.37 | –
23 | 4.12 µM | CCc1ccc(C(=O)NCCCNC(=O)c2cc(-c3cccs3)on2)o1 [Compound 101, N-(3-(5-ethylfuran-2-carboxamido)propyl)-5-(thiophen-2-yl)isoxazole-3-carboxamide] | 4.24 | –
24 | – | O=C(NCCCNC(=O)c1ccno1)c1cc(-c2cccs2)on1 [Compound 102, N-(3-(isoxazole-5-carboxamido)propyl)-5-(thiophen-2-yl)isoxazole-3-carboxamide] | 2.87 | –
25 | – | Cn1cnc(C(=O)NCCCNC(=O)c2cc(-c3cccs3)on2)c1 [Compound 103, N-(3-(1-methyl-1H-imidazole-4-carboxamido)propyl)-5-(thiophen-2-yl)isoxazole-3-carboxamide] | 3.02 | –
26 | – | O=C(NCCCNC(=O)c1cnn[nH]1)c1cc(-c2cccs2)on1 [Compound 104, N-(3-(1H-1,2,3-triazole-5-carboxamido)propyl)-5-(thiophen-2-yl)isoxazole-3-carboxamide] | 3.13 | –
27 | – | O=C(NCCCNC(=O)c1cc(-c2cccs2)on1)c1cc(-c2ccccc2)ccn1 [Compound 106, N-(3-(4-phenylpicolinamido)propyl)-5-(thiophen-2-yl)isoxazole-3-carboxamide] | 3.69 | –
28 | 6.95 µM | O=C(NCCCNC(=O)c1cccc(C(F)(F)F)n1)c1cc(-c2cccs2)on1 [Compound 107, 5-(thiophen-2-yl)-N-(3-(6-(trifluoromethyl)picolinamido)propyl)isoxazole-3-carboxamide] | 4.15 | –
29 | – | O=C(NCCCNC(=O)c1nc2ncccn2n1)c1cc(-c2cccs2)on1 [Compound 108, N-(3-([1,2,4]triazolo[1,5-a]pyrimidine-2-carboxamido)propyl)-5-(thiophen-2-yl)isoxazole-3-carboxamide] | 2.45 | –
30 | – | Cc1cc(C)c(C(=O)NCCCNC(=O)c2cc(-c3cccs3)on2)o1 [Compound 110, N-(3-(3,5-dimethylfuran-2-carboxamido)propyl)-5-(thiophen-2-yl)isoxazole-3-carboxamide] | 3.74 | –
31 | 7.2 µM | Cc1cncc(C(=O)NCCCNC(=O)c2cc(-c3ccccc3)on2)n1 [Compound 111, N-(3-(6-methylpyrazine-2-carboxamido)propyl)-5-phenylisoxazole-3-carboxamide] | 4.13 | –
32 | – | CC(C)(C)c1ccc(C(=O)NCCCNC(=O)c2cc(-c3ccccc3)on2)o1 [Compound 112, N-(3-(5-(tert-butyl)furan-2-carboxamido)propyl)-5-phenylisoxazole-3-carboxamide] | 3.86 | –
33 | 6.35 µM | O=C(NCCCNC(=O)c1occc1-c1ccccc1)c1cc(-c2ccccc2)on1 [Compound 114, 5-phenyl-N-(3-(3-phenylfuran-2-carboxamido)propyl)isoxazole-3-carboxamide] | 4.7 | –
